# Key:
# [1] = tested on: adenocarcinomic human alveolar basal epithelial cell line A549; assay: High content analysis of anticancer agents by cell image analysis (Experimental Example 8); format: cell-based; conditions: for IC50: Homo sapiens; for average cell number per sphere / average dead cell number in sphere / average sphere number per 20 mm^2 / projected area: 0.03 (w/v)% low-molecular agar medium, 7 days with agent;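 for projected area: Projected area in square micrometres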
# Experimental: Adenocarcinomic human alveolar basal epithelial cell line A549 (manufactured by DS PHARMA BIOMEDICAL CO., LTD.) was suspended in the above-mentioned medium composition containing low-molecular agar at 11,000 cells/mL. […] The plate was stood in a CO2 incubator (37° C., 5% CO2) overnight. The next day, paclitaxel (manufactured by Wako Pure Chemical Industries, Ltd.) and trametinib (manufactured by SANTA CRUZ) were further added by 10 μl per 1 well at a final concentration of 0.001 μM, 0.01 μM and 0.1 μM, respectively, mitomycin C (manufactured by Wako Pure Chemical Industries, Ltd.) at a final concentration of 0.005 μM, 0.05 μM and 0.5 μM, and MK2206 (manufactured by SANTA CRUZ) at a final concentration of 0.001 μM, 0.01 μM, 0.1 μM and 1 μM. Successively, the plate was further cultured in a standing state in a CO2 incubator (37° C., 5% CO2) for 7 days.
# Successively, a solution of 20 μg/mL Propidium Iodide (manufactured by BIOMOL) in DMEM (phenol red, L-glutamine free) (manufactured by Wako Pure Chemical Industries, Ltd.) was prepared and added at 10 μL per 1 well, and the culture medium was suspended. The plate was centrifuged at 1,500 rpm for 1 min, and high content analysis was performed by cell image analysis using a cell imaging apparatus (“ArrayScan VTI HCS Reader”, manufactured by Thermo Fisher Scientific). At that time, observation was performed with 20 fields of view per well using a ×10 objective lens, cell outline and cell nucleus were detected from Hoechst33342 fluorescence image, and dead cells were detected from propidium iodide fluorescence image. In addition, 50% inhibitory concentration (nM) of each anticancer agent by high content analysis was calculated from the number of spheres constituted of not less than 5 cells. In this case, the value without addition of the anticancer agent was taken as 0% sphere formation inhibitory rate.
# [2] = tested on: adenocarcinomic human alveolar basal epithelial cell line A549; assay: CellTiter-Glo cell survival assay of anticancer agents (Experimental Example 8); format: cell-based; conditions: for IC50: Homo sapiens, A549, cell survival assay by luminescence, read-out: 50% inhibitory concentration
# Experimental: Adenocarcinomic human alveolar basal epithelial cell line A549 (manufactured by DS PHARMA BIOMEDICAL CO., LTD.) was suspended in the above-mentioned medium composition containing low-molecular agar at 11,000 cells/mL. The above-mentioned cell suspension was dispensed to the wells of a 96 well flat bottom ultra-low attachment surface microplate (manufactured by Corning Incorporated, #3474) at 90 μL per 1 well. The plate was stood in a CO2 incubator (37° C., 5% CO2) overnight. […] Successively, the plate was further cultured in a standing state in a CO2 incubator (37° C., 5% CO2) for 7 days. As a negative control, a medium composition containing 10 (v/v) % FBS alone in DMEM (manufactured by Wako Pure Chemical Industries, Ltd.) was prepared. […] A549 cells were also suspended in each of the negative control and comparison control medium compositions, the negative control was dispensed to a 96 well flat bottom attachment surface microplate (manufactured by Corning Incorporated, #3585) and the comparison control was dispensed to a 96 well flat bottom ultra-low attachment surface microplate (manufactured by Corning Incorporated, #3474). […] CellTiter-Glo Luminescent Cell Viability Assay (manufactured by Promega) (100 μL) was added to the low-molecular agar-containing culture medium and each cell culture medium of the negative control and comparison control, the mixture was stood for 10 min at room temperature, and the amount of luminescence was measured by a microplate reader (“FlexStation 3”, manufactured by Molecular Devices) and according to the protocol recommended by Promega. The amount of luminescence of the medium alone was subtracted, whereby the number of viable cells was measured.
# [3] = A549, high content analysis by cell image analysis, number of spheres of not less than 5 cells, low-molecular agar-containing medium, read-out: 50% inhibitory concentration
# [4] = comparison control (0.015 (w/v)% deacylated gellan gum medium)
# [5] = low-molecular agar-containing medium
# [6] = negative control (DMEM, 10% FBS, attachment surface plate)
# [7] = agent 0.001 μM, comparison control (0.015 (w/v)% deacylated gellan gum medium)
# [8] = agent 0.001 μM, low-molecular agar-containing medium
# [9] = agent 0.001 μM, negative control (DMEM, 10% FBS, attachment surface plate)
# [10] = agent 0.01 μM, comparison control (0.015 (w/v)% deacylated gellan gum medium)
# [11] = agent 0.01 μM, low-molecular agar-containing medium
# [12] = agent 0.01 μM, negative control (DMEM, 10% FBS, attachment surface plate)
# [13] = agent 0.1 μM, comparison control (0.015 (w/v)% deacylated gellan gum medium)
# [14] = agent 0.1 μM, low-molecular agar-containing medium
# [15] = agent 0.1 μM, negative control (DMEM, 10% FBS, attachment surface plate)
compound,measurement,setting,value
NC1(c2ccc(-c3nc4ccn5c(=O)[nH]nc5c4cc3-c3ccccc3)cc2)CCC1 [MK2206],IC50,[1]; [3],0.21 µM
same,average cell number per sphere,[1]; agent 0.001 μM,5.044
same,average dead cell number in sphere,[1]; agent 0.001 μM,0.104
same,average sphere number per 20 mm^2,[1]; agent 0.001 μM,230.6
same,projected area,[1]; agent 0.001 μM,1361 μm^2
same,average cell number per sphere,[1]; agent 0.01 μM,4.774
same,average dead cell number in sphere,[1]; agent 0.01 μM,0.074
same,average sphere number per 20 mm^2,[1]; agent 0.01 μM,213.7
same,projected area,[1]; agent 0.01 μM,1343 μm^2
same,average cell number per sphere,[1]; agent 0.1 μM,4.323
same,average dead cell number in sphere,[1]; agent 0.1 μM,0.076
same,average sphere number per 20 mm^2,[1]; agent 0.1 μM,206.1
same,projected area,[1]; agent 0.1 μM,1199 μm^2
same,average cell number per sphere,[1]; agent 1 μM,3.423
same,average dead cell number in sphere,[1]; agent 1 μM,0.332
same,average sphere number per 20 mm^2,[1]; agent 1 μM,142.3
same,projected area,[1]; agent 1 μM,931.2 μm^2
same,IC50,[2]; [4],0.21 µM
same,IC50,[2]; [5],0.25 µM
same,IC50,[2]; [6],≥ 1 µM
same,relative cell number (no anticancer agent = 100),[2]; [7],95.8
same,relative cell number (no anticancer agent = 100),[2]; [8],100.1
same,relative cell number (no anticancer agent = 100),[2]; [9],100.2
same,relative cell number (no anticancer agent = 100),[2]; [10],89.1
same,relative cell number (no anticancer agent = 100),[2]; [11],93.9
same,relative cell number (no anticancer agent = 100),[2]; [12],101.3
same,relative cell number (no anticancer agent = 100),[2]; [13],61.8
same,relative cell number (no anticancer agent = 100),[2]; [14],66.5
same,relative cell number (no anticancer agent = 100),[2]; [15],97.6
same,relative cell number (no anticancer agent = 100),"[2]; agent 1 μM, comparison control (0.015 (w/v)% deacylated gellan gum medium)",25.2
same,relative cell number (no anticancer agent = 100),"[2]; agent 1 μM, low-molecular agar-containing medium",25.7
same,relative cell number (no anticancer agent = 100),"[2]; agent 1 μM, negative control (DMEM, 10% FBS, attachment surface plate)",95.7
CO[C@@]12[C@H](COC(N)=O)C3=C(C(=O)C(C)=C(N)C3=O)N1C[C@@H]1N[C@@H]12 [mitomycin C],IC50,"[1]; A549, read-out: 50% inhibitory concentration",0.0064 µM
same,average cell number per sphere,[1]; agent 0.005 μM,3.72
same,average dead cell number in sphere,[1]; agent 0.005 μM,0.151
same,average sphere number per 20 mm^2,[1]; agent 0.005 μM,265.2
same,projected area,[1]; agent 0.005 μM,1139 μm^2
same,average cell number per sphere,[1]; agent 0.05 μM,2.187
same,average dead cell number in sphere,[1]; agent 0.05 μM,0.33
same,average sphere number per 20 mm^2,[1]; agent 0.05 μM,190.6
same,projected area,[1]; agent 0.05 μM,810.7 μm^2
same,average cell number per sphere,[1]; agent 0.5 μM,1.447
same,average dead cell number in sphere,[1]; agent 0.5 μM,0.606
same,average sphere number per 20 mm^2,[1]; agent 0.5 μM,113.3
same,projected area,[1]; agent 0.5 μM,460.8 μm^2
same,IC50,[2]; [4],0.0121 µM
same,IC50,[2]; [5],0.01 µM
same,IC50,[2]; [6],0.0714 µM
same,relative cell number (no anticancer agent = 100),"[2]; agent 0.005 μM, comparison control (0.015 (w/v)% deacylated gellan gum medium)",62.8
same,relative cell number (no anticancer agent = 100),"[2]; agent 0.005 μM, low-molecular agar-containing medium",59.5
same,relative cell number (no anticancer agent = 100),"[2]; agent 0.005 μM, negative control (DMEM, 10% FBS, attachment surface plate)",94
same,relative cell number (no anticancer agent = 100),"[2]; agent 0.05 μM, comparison control (0.015 (w/v)% deacylated gellan gum medium)",29.5
same,relative cell number (no anticancer agent = 100),"[2]; agent 0.05 μM, low-molecular agar-containing medium",27.8
same,relative cell number (no anticancer agent = 100),"[2]; agent 0.05 μM, negative control (DMEM, 10% FBS, attachment surface plate)",55.9
same,relative cell number (no anticancer agent = 100),"[2]; agent 0.5 μM, comparison control (0.015 (w/v)% deacylated gellan gum medium)",8.6
same,relative cell number (no anticancer agent = 100),"[2]; agent 0.5 μM, low-molecular agar-containing medium",8.1
same,relative cell number (no anticancer agent = 100),"[2]; agent 0.5 μM, negative control (DMEM, 10% FBS, attachment surface plate)",12.3
CC(=O)Nc1cccc(-n2c(=O)n(C3CC3)c(=O)c3c(Nc4ccc(I)cc4F)n(C)c(=O)c(C)c32)c1 [trametinib],IC50,[1]; [3],0.0051 µM
same,average cell number per sphere,[1]; agent 0.001 μM,4.272
same,average dead cell number in sphere,[1]; agent 0.001 μM,0.073
same,average sphere number per 20 mm^2,[1]; agent 0.001 μM,218.7
same,projected area,[1]; agent 0.001 μM,1200 μm^2
same,average cell number per sphere,[1]; agent 0.01 μM,2.906
same,average dead cell number in sphere,[1]; agent 0.01 μM,0.09
same,average sphere number per 20 mm^2,[1]; agent 0.01 μM,173.9
same,projected area,[1]; agent 0.01 μM,976.6 μm^2
same,average cell number per sphere,[1]; agent 0.1 μM,1.867
same,average dead cell number in sphere,[1]; agent 0.1 μM,0.178
same,average sphere number per 20 mm^2,[1]; agent 0.1 μM,132.8
same,projected area,[1]; agent 0.1 μM,618.3 μm^2
same,IC50,[2]; [4],0.0115 µM
same,IC50,[2]; [5],0.0081 µM
same,IC50,[2]; [6],0.0625 µM
same,relative cell number (no anticancer agent = 100),[2]; [7],93.3
same,relative cell number (no anticancer agent = 100),[2]; [8],92.2
same,relative cell number (no anticancer agent = 100),[2]; [9],101.2
same,relative cell number (no anticancer agent = 100),[2]; [10],52.5
same,relative cell number (no anticancer agent = 100),[2]; [11],45.8
same,relative cell number (no anticancer agent = 100),[2]; [12],99
same,relative cell number (no anticancer agent = 100),[2]; [13],18.1
same,relative cell number (no anticancer agent = 100),[2]; [14],18.2
same,relative cell number (no anticancer agent = 100),[2]; [15],37.4

# — patent US10914725B2, “Culture medium additive, culture medium composition, and method for culturing cells or tissue using same” (NISSAN CHEMICAL INDUSTRIES, LTD., priority 2015, dated 2021)
